Structures can show the parent of a compound that is named as a salt.
What was measured:
[1] = test system: patients hospitalized for acute heart failure (AHF); assay: NT-proBNP serial measurements (Elecsys proBNP II); type: in vivo, human
Description: (§1) The primary efficacy endpoint was the change from baseline to 24 h after the start of the infusion in the E/e ratio assessed by tissue Doppler echocardiography. Secondary endpoints included the change from baseline to 24 h of other echocardiography parameters: LVEF, left ventricular end-systolic and end-diastolic volumes, stroke volume index, E, A, E/A ratio, and S′: changes in dyspnoea by visual analogue scale (VAS) and in NT-proBNP from baseline to 24 h: proportion of patients with hospital readmissions or emergency visits for cardiovascular reasons by day 30; proportion of patients with episodes of in-hospital worsening heart failure to day 4, and length of stay. In-hospital worsening heart failure was defined by the need to increase the dose or reinitiate intravenous therapy with diuretics and/or other inotropic agents to day 4. Safety endpoints were assessed throughout the study and included: incidence of adverse events (AEs): change in vital signs and in 12-lead electrocardiographic (ECG) parameters: incidence of clinically or haemodynamically significant episodes of supraventricular or ventricular arrhythmias detected by continuous ECG monitoring: standard laboratory parameters: renal function: cardiac troponin T (cTnT): incidence of cTnT elevations, and mortality at day 30. Elevations in cTnT were considered significant if they were >50% or >20% from baseline values, for patients with cTnT below or above the 99% upper reference limit at baseline, respectively.
The study design included a 24 h screening period, a 24 h study drug infusion phase (day 1), a post-treatment phase (days 2-4), and a follow-up visit at day 30 (FIG. 5). Patients could be enrolled at any time after admission. The use of oral medications was permitted during the study with the exception of digoxin. Intravenous diuretics were permitted during the treatment period at stable doses, unless changes were required due to clinically relevant variations of the patient's condition. If treatment with an inotrope was clinically necessary during the infusion period, the investigational product was discontinued. Echocardiography was performed according to international standards at screening, baseline (just before starting study drug infusion), 6, 24 h (just before infusion end), and 48 h after infusion start. Echocardiographic measurements at baseline, 6, 24, and 48 h were evaluated in a blinded fashion by a CoreLab located at the University and Civil Hospital of Brescia, Italy. E/e′ ratio was calculated as the ratio between the peak early diastolic mitral flow velocity (E wave) and the mean of the annular lateral (e′ lateral) and septal (e′ septal) velocities, according to standard guidelines.^20 Intraobserver and interobserver variability in E/e′ measurement was tested on the 15% of the recordings and is shown in FIG. 6. Self-reported dyspnoea was assessed using a 100 mm VAS, with zero representing the worst level of dyspnoea and […] the best breathing condition. Twenty-four hour ECG monitoring was performed using a three-lead device (Mortara industries, Milwaukee, WI, USA) during the day of screening, the infusion period, and the day after (the latter was optional). Analysis was conducted by a blinded CoreLab (ICS Maugeri, Italy). Serial measurements of NT-proBNP throughout the study were analyzed by a central laboratory (Elecsys® proBNP II, Roche®, Basel, Switzerland). Samples for cTnT were taken at baseline, 3, 6, 12, 24, 48, and 72 h and on day 30, and were analyzed by a core laboratory (Elecsys® high-sensitivity assay, Roche®, Basel, Switzerland). AEs were monitored throughout the duration of the study.
The study was designed as a mechanistic and safety study to assess the effects of a 24 h istaroxime infusion in patients hospitalized for AHF. […]

[2] = test system: patients hospitalized for acute heart failure (AHF); assay: Vital signs (systolic blood pressure, heart rate) during and after 24 h infusion; type: in vivo, human
Text: This study was a phase II, multicenter, randomized, double-blind, placebo-controlled, parallel group investigation, conducted at two sites in Italy and eight sites in China. All patients provided written informed consent. The study was approved by country regulatory authorities and by local institutional review boards. The trial is registered in the European Clinical Trials Database (EudraCT 2013-000540-26) and ClinicalTrials.gov (NCT02617446).
Patients were randomized 2:1 to istaroxime or placebo 24 h infusion and were enrolled in two sequential cohorts, the first with an istaroxime dose of 0.5 μg/kg/min and the second with an istaroxime dose of 1.0 μg/kg/min. At the end of cohort 1 enrollment, an independent Data Safety and Monitoring Board conducted an interim safety analysis of unblinded data before proceeding to cohort 2 enrollment. Inclusion criteria were: age ≥18 years, an ongoing hospitalization for AHF with dyspnoea at rest or minimal exertion and need for intravenous diuretic therapy (40 mg intravenous furosemide), SBP between 90 and 125 mmHg without signs or symptoms of peripheral hypoperfusion: LVEF ≤40%: intermediate to high E/e′ ratio by tissue Doppler echocardiography (10); brain natriuretic peptide (BNP) or N-terminal pro BNP (NT-proBNP) plasma levels ≥350 pg/mL or ≥1400 pg/mL, respectively, and presence of adequate echocardiographic windows. The main exclusion criteria were: concomitant or planned treatment with intravenous vasodilators, inotropes or vasopressors: treatment with oral digoxin (patients treated with digoxin within the last week could be randomized if the plasma concentration at screening was 0.5 ng/mL); acute coronary syndrome or stroke within the past 3 months: coronary artery bypass graft or percutaneous coronary intervention within the past month or planned in the next month: resting HR >120 bpm or <50 bpm: life-threatening ventricular arrhythmia or implantable cardioverter-defibrillator shock within the past month: fever 38° C.; serum creatinine 3.0 mg/dL or estimated glomerular filtration rate (eGFR) 30 mL/min/m2; serum potassium 5.3 mmol/L or 3.8 mmol/L; severe hepatic dysfunction.
as §1
The study design included a 24 h screening period, a 24 h study drug infusion phase (day 1), a post-treatment phase (days 2-4), and a follow-up visit at day 30 (FIG. 5). Patients could be enrolled at any time after admission. The use of oral medications was permitted during the study with the exception of digoxin. […]

[3] = intravenous infusion; cited from earlier work

C[C@]12CCC(=NOCCN)C[C@@H]1C(=O)C[C@@H]1[C@@H]2CC[C@]2(C)C(=O)CC[C@@H]12 [Istaroxime, (E,Z)-3-((2-aminoethoxy)imino)androstane-6,17-dione hydrochloride]
NT-proBNP, median change from baseline ([1]; 0.5 μg/Kg/min, 24 hours): 120 pg/mL | NT-proBNP, median change from baseline ([1]; 0.5 μg/Kg/min, 48 hours): -431 pg/mL | NT-proBNP, median change from baseline ([1]; 0.5 μg/Kg/min, 72 hours): -802 pg/mL | NT-proBNP, median change from baseline ([1]; 1.0 μg/Kg/min, 24 hours): -214 pg/mL | NT-proBNP, median change from baseline ([1]; 1.0 μg/Kg/min, 48 hours): -563 pg/mL | NT-proBNP, median change from baseline ([1]; 1.0 μg/Kg/min, 72 hours): -528 pg/mL | HR mean change from baseline ([2]; 0.5 μg/Kg/min, 3 hours): −4.21 bpm | SBP mean change from baseline ([2]; 0.5 μg/Kg/min, 3 hours): 1.49 mmHg | HR mean change from baseline ([2]; 0.5 μg/Kg/min, 6 hours): −3.51 bpm | SBP mean change from baseline ([2]; 0.5 μg/Kg/min, 6 hours): 2.92 mmHg | HR mean change from baseline ([2]; 0.5 μg/Kg/min, 12 hours): −4.59 bpm | SBP mean change from baseline ([2]; 0.5 μg/Kg/min, 12 hours): 3.13 mmHg | HR mean change from baseline ([2]; 0.5 μg/Kg/min, 24 hours): −3.26 bpm | SBP mean change from baseline ([2]; 0.5 μg/Kg/min, 24 hours): 2.82 mmHg | HR mean change from baseline ([2]; 0.5 μg/Kg/min, 48 hours): −0.37 bpm | SBP mean change from baseline ([2]; 0.5 μg/Kg/min, 48 hours): −3.10 mmHg | HR decreased from baseline by ([2]; 0.5 μg/kg/min): about 3 bpm | SBP increased from baseline by ([2]; 0.5 μg/kg/min): about 3 mmHg | HR mean change from baseline ([2]; 1.0 μg/Kg/min, 3 hours): −10.61 bpm | SBP mean change from baseline ([2]; 1.0 μg/Kg/min, 3 hours): 7.63 mmHg | HR mean change from baseline ([2]; 1.0 μg/Kg/min, 6 hours): −8.89 bpm | SBP mean change from baseline ([2]; 1.0 μg/Kg/min, 6 hours): 8.08 mmHg | HR mean change from baseline ([2]; 1.0 μg/Kg/min, 12 hours): −9.49 bpm | SBP mean change from baseline ([2]; 1.0 μg/Kg/min, 12 hours): 9.00 mmHg | HR mean change from baseline ([2]; 1.0 μg/Kg/min, 24 hours): −9.61 bpm | SBP mean change from baseline ([2]; 1.0 μg/Kg/min, 24 hours): 6.11 mmHg | HR mean change from baseline ([2]; 1.0 μg/Kg/min, 48 hours): 3.86 bpm | SBP mean change from baseline ([2]; 1.0 μg/Kg/min, 48 hours): −1.73 mmHg | SBP increased from baseline by ([2]; 1.0 μg/kg/min, significant vs. placebo at 3 to 12 h): 6-8 mmHg | HR decreased from baseline by ([2]; 1.0 μg/kg/min, significant vs. placebo at 3 to 24 h): 8-9 bpm | half-time (washout after infusion termination) [3]: 60 min

— patent publication US12697343B2, “Intravenous istaroxime for the treatment of acute heart failure” (Seismic Pharmaceuticals Operations LLC, priority 2021, dated 2026)
